According to BindingDB's records for doi:10.1016/j.bmcl.2007.01.081 (Roche Research Center, 2007):

Key:
SJSA-1 = assay: Antiproliferative activity against human SJSA1 cells
SW480 = assay: Antiproliferative activity against human SW480 cells
MDA-MB-435 = assay: Antiproliferative activity against human MDA435 cells
HCT-116 = assay: Antiproliferative activity against human HCT116 cells
RKO = assay: Antiproliferative activity against human RKO cells

O=C1N=C(N[C@@H]2C[C@H]2c2ccccc2)SC1=Cc1ccc2ncccc2c1 [(Z)-2-((1R,2S)-2-phenylcyclopropylamino)-5-(quinolin-6-ylmethylene)thiazol-4(5H)-one]
IC50 (SJSA-1): 1.85 µM

O=C1N=C(NCc2cccs2)S/C1=C/c1ccc2ncccc2c1
IC50 (SJSA-1): 4.55 µM

O=C1N=C(N[C@@H](CO)Cc2ccccc2)SC1=Cc1ccc2ncccc2c1 [(R,Z)-2-(1-hydroxy-3-phenylpropan-2-ylamino)-5-(quinolin-6-ylmethylene)thiazol-4(5H)-one]
IC50 (SW480): 3.07 µM | IC50 (SJSA-1): 3.24 µM | IC50 (MDA-MB-435): 2.03 µM | IC50 (HCT-116): 1.58 µM | IC50 (RKO): 1.39 µM
